The text below walks through data of publication PMC9609971, “Benzimidazole Bearing Thiosemicarbazone Derivatives Act as Potent α-Amylase and α-Glucosidase Inhibitors; Synthesis, Bioactivity Screening and Molecular Docking Study” (Molecules, 2022).

For test [1], the target named is crude intestinal α-glucosidase. The test is described as follows: In vitro α-glucosidase activity assay (p-nitrophenyl-α-D-glucopyranoside substrate). In kind it is biochemical. Conditions: triplicate; ± SEM. As for the experimental part: The α-Glucosidase activity was determined by a slight modification to the already-reported method. In a 96-well microplate, 10 μL of test samples (5 mg/mL DMSO solution) were reconstituted in 100 μL of 100 mM-phosphate buffer (pH 6.8) and incubated with 50 μL of crude intestinal α-glucosidase for 5 min before 50 μL substrate (5 mM, p-nitrophenyl-α-D-glucopyranoside prepared in the same buffer) was added. The release of p-nitrophenol was measured at 405 nm spectrophotometrically for 5 min after incubation with the substrate. Individual blanks for test samples were prepared to correct background absorbance where the substrate was replaced with 50 μL of the buffer. The control sample contained 10 μL DMSO in place of the test samples. All reactions were carried out in triplicate.
The percentage of enzyme inhibition was calculated as (1 − B/A) × 100.
Where A represents the absorbance of control without test samples, and B represents absorbance in the presence of test samples.

The target of test [2] is T1, Porcine pancreatic α-amylase (Sus scrofa, UniProt P00690).
T1 construct: α-amylase solution (Porcine pancreatic α-amylase); from tissue; host or cells: porcine pancreas (from the enzyme's name only)
T1 sequence (P00690 16-511): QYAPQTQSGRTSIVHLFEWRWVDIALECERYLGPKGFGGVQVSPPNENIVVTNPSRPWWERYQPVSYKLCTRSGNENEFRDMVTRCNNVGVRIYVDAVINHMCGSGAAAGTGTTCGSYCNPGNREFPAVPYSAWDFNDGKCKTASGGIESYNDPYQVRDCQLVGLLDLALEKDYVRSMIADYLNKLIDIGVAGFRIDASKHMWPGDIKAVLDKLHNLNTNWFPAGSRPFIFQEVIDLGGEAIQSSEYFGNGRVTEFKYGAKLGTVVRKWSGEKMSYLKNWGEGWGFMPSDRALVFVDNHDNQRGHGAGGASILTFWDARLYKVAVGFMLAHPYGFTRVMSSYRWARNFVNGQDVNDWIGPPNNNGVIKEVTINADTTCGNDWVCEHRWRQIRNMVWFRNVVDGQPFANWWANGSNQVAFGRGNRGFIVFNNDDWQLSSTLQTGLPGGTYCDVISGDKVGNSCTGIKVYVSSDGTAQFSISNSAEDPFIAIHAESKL
The test is described as follows: In vitro α-amylase activity assay (starch/dinitrosalicylic acid). Conditions: triplicate; ± SEM. The test is classed as biochemical. As for the experimental part: α-Amylase inhibition was determined by an assay modified by Kwon, Apostolidis & Shetty. A total of 40 μL of sample and 40 μL of 0.02 M sodium phosphate buffer (pH 6.9 with 0.006 M sodium chloride) containing α-amylase solution (Porcine pancreatic α-amylase) (0.5 mg/mL) were incubated at 25 °C for 10 min. After pre-incubation, 40 μL of a 1% starch solution in 0.02 M sodium phosphate buffer (pH 6.9 with 0.006 M sodium chloride) was added to each tube at 5 s intervals. The reaction mixtures were then incubated at 25 °C for 10 min. The reaction was stopped with 100 μL of dinitrosalicylic acid color reagent. The test tubes were then incubated in a boiling water bath for 5 min and cooled to room temperature. The reaction mixture was then diluted after adding 900 μL of distilled water, and the absorbance was measured at 540 nm. […] All reactions were carried out in triplicate.

By IC50 is commonly meant the concentration that inhibits the measured activity by half. Higher therefore signals weaker potency in that assay. With `Oc1ccc(/C=N/NC(=S)NN=C(CSc2nc3ccccc3[nH]2)c2ccc(Cl)c(Cl)c2)cc1` [derivative 12, N′-(2-((1H-Benzo[d]imidazol-2-yl)thio)-1-(3,4-dichlorophenyl)ethylidene)-2-((E)-4-hydroxybenzylidene)hydrazine-1-carbothiohydrazide], the half-inhibitory concentration (IC50) was 2.2 ± 0.2 µM in test [1] and 1.1 ± 0.2 µM in test [2].

For `O=[N+]([O-])c1cccc(/C=N/NC(=S)NN=C(CSc2nc3ccccc3[nH]2)c2ccc(-c3ccccc3)cc2)c1` [derivative 9, N′-(2-((1H-Benzo[d]imidazol-2-yl)thio)-1-([1,1′-biphenyl]-4-yl)ethylidene)-2-((E)-3-nitrobenzylidene)hydrazine-1-carbothiohydrazide], the half-inhibitory concentration (IC50) in test [1] is 14.2 ± 0.2 µM; in test [2], 13.1 ± 0.1 µM.

Take `O=[N+]([O-])c1ccc(/C=N/NC(=S)NN=C(CSc2nc3ccccc3[nH]2)c2ccc(-c3ccccc3)cc2)cc1` [derivative 8, N′-(2-((1H-Benzo[d]imidazol-2-yl)thio)-1-([1,1′-biphenyl]-4-yl)ethylidene)-2-((E)-4-nitrobenzylidene)hydrazine-1-carbothiohydrazide]: the 50% inhibitory concentration (IC50) in test [1] is 17.2 ± 0.1 µM; in test [2] it was 15.2 ± 0.2 µM.

On to `O=[N+]([O-])c1cccc(/C=N/NC(=S)NN=C(CSc2nc3ccccc3[nH]2)c2ccc(Cl)c(Cl)c2)c1` [derivative 14, N′-(2-((1H-Benzo[d]imidazol-2-yl)thio)-1-(3,4-dichlorophenyl)ethylidene)-2-((E)-3-nitrobenzylidene)hydrazine-1-carbothiohydrazide], for which the results for the concentration for half-maximal inhibition (IC50) in test [1] and in test [2] were 7.1 ± 0.01 µM and 6.1 ± 0.2 µM, respectively.

For the compound `Oc1ccc(/C=N/NC(=S)NN=C(CSc2nc3ccccc3[nH]2)c2ccc(Br)cc2)cc1` [derivative 16, N′-(2-((1H-Benzo[d]imidazol-2-yl)thio)-1-(4-bromophenyl)ethylidene)-2-((E)-4-hydroxybenzylidene)hydrazine-1-carbothiohydrazide], the IC50 in test [1] was 21.1 ± 0.01 µM; in test [2], 20.1 ± 0.2 µM.

For the compound `O=[N+]([O-])c1ccccc1/C=N/NC(=S)NN=C(CSc1nc2ccccc2[nH]1)c1ccc(Cl)c(Cl)c1` [derivative 11, N′-(2-((1H-Benzo[d]imidazol-2-yl)thio)-1-(3,4-dichlorophenyl)ethylidene)-2-((E)-2-nitrobenzylidene)hydrazine-1-carbothiohydrazide], the results for the IC50 in test [1] and in test [2] were 4.2 ± 0.1 µM and 3.1 ± 0.1 µM, respectively.

Take `Fc1cccc(/C=N/NC(=S)N/N=C(\CSc2nc3ccccc3[nH]2)c2cccc(F)c2)c1` [derivative 19]: the IC50 was determined as 1.3 ± 0.2 µM in test [1] and 1.2 ± 0.2 µM in test [2].

For the compound `O=[N+]([O-])c1cccc(/C=N/NC(=S)NN=C(CSc2nc3ccccc3[nH]2)c2ccc(Br)cc2)c1` [derivative 18, N′-(2-((1H-Benzo[d]imidazol-2-yl)thio)-1-(4-bromophenyl)ethylidene)-2-((E)-3-nitrobenzylidene)hydrazine-1-carbothiohydrazide], the IC50 in test [1] turned out to be 14.1 ± 0.01 µM; in test [2], 13.2 ± 0.2 µM.

Turning to `O=[N+]([O-])c1ccc(/C=N/NC(=S)NN=C(CSc2nc3ccccc3[nH]2)c2ccc(Cl)c(Cl)c2)cc1` [derivative 13, N′-(2-((1H-Benzo[d]imidazol-2-yl)thio)-1-(3,4-dichlorophenyl)ethylidene)-2-((E)-4-nitrobenzylidene)hydrazine-1-carbothiohydrazide], the 50% inhibitory concentration (IC50) in test [1] is 3.1 ± 0.2 µM; in test [2] it was 2.1 ± 0.2 µM.

For the compound `O=[N+]([O-])c1ccc(/C=N/NC(=S)NN=C(CSc2nc3ccccc3[nH]2)c2ccc(Br)cc2)cc1` [derivative 17, N′-(2-((1H-Benzo[d]imidazol-2-yl)thio)-1-(4-bromophenyl)ethylidene)-2-((E)-4-nitrobenzylidene)hydrazine-1-carbothiohydrazide], the IC50 in test [1] is 16.1 ± 0.01 µM; in test [2], 15.1 ± 0.2 µM.

In the case of `Oc1ccc(/C=N/NC(=S)NN=C(CSc2nc3ccccc3[nH]2)c2ccc(-c3ccccc3)cc2)cc1` [derivative 10, N′-(2-((1H-Benzo[d]imidazol-2-yl)thio)-1-([1,1′-biphenyl]-4-yl)ethylidene)-2-((E)-4-hydroxybenzylidene)hydrazine-1-carbothiohydrazide], the results for the 50% inhibitory concentration (IC50) in test [1] and in test [2] were 11.2 ± 0.1 µM and 10.2 ± 0.02 µM, respectively.

As to `O=[N+]([O-])c1ccccc1/C=N/NC(=S)NN=C(CSc1nc2ccccc2[nH]1)c1ccc(Br)cc1` [derivative 15, N′-(2-((1H-Benzo[d]imidazol-2-yl)thio)-1-(4-bromophenyl)ethylidene)-2-((E)-2-nitrobenzylidene)hydrazine-1-carbothiohydrazide], the figures for the half-maximal inhibitory concentration (IC50) in test [1] and in test [2] were 18.1 ± 0.2 µM and 17.1 ± 0.01 µM, respectively.

With `O=[N+]([O-])c1cccc(/C=N/NC(=S)N/N=C(\CSc2nc3ccccc3[nH]2)c2ccccc2)c1` [derivative 21, N′-((Z)-2-((1H-Benzo[d]imidazol-2-yl)thio)-1-phenylethylidene)-2-((E)-3-nitrobenzylidene)hydrazine-1-carbothiohydrazide], the half-maximal inhibitory concentration (IC50) amounted to 22.1 ± 0.2 µM in test [1] and 21.1 ± 0.01 µM in test [2].

On to “N′-((Z)-2-((1H-Benzo[d]imidazol-2-yl)thio)-1-(3-fluorophenyl)ethylidene)-2-((E)-2-methyl-4-nitrobenzylidene)hydrazine-1-carbothiohydrazide [derivative 20]”, for which the half-maximal inhibitory concentration (IC50) in test [1] was 1.6 ± 0.2 µM; in test [2], 1.4 ± 0.01 µM.

For the compound `O=[N+]([O-])c1ccccc1/C=N/NC(=S)NN=C(CSc1nc2ccccc2[nH]1)c1ccc(-c2ccccc2)cc1` [derivative 7, N′-(2-((1H-Benzo[d]imidazol-2-yl)thio)-1-([1,1′-biphenyl]-4-yl)ethylidene)-2-((E)-2-nitrobenzylidene)hydrazine-1-carbothiohydrazide], the figures for the IC50 in test [1] and in test [2] were 14.2 ± 0.1 µM and 16.1 ± 0.01 µM, respectively.
